Test results taken from publication PMC7041945, “Misfolded proteins bind and activate death receptor 5 to trigger apoptosis during unresolved endoplasmic reticulum stress” (eLife, 2020).
No end group written: not given here.

Experiments:
DR5L ECD [1] = target: T1, DR5L ECD (Homo sapiens, UniProt O14763); assay: Fluorescence quenching of AlexaFluor647-DR5L ECD; format: binding
T1 construct: Gp67 (glycoprotein) signal peptide (N); made in house; host or cells: SF21 insect cells (baculovirus, Bac-to-Bac)
Experimental: The pFastBac HTB constructs were recombined into bacmid DNA using the Bac-to-Bac baculovirus expression system according to manufacturer’s protocols (Life Technologies).
Recombinant DR5 and TNFR1 ECD were labeled with AlexaFluor647 NHS Ester (Succinimidyl Ester) (Life Technologies # A37573) in a 3:1 dye:protein molar ratio in 30 mM HEPES pH 7.2, 150 mM NaCl, 1% DMF overnight at 4°C protected from light. The labeled proteins were re-loaded onto a SuperDex200 10/300 GL column to remove the excess dye, yielding labeling efficiencies of 59% and 49% for DR5 ECD and TNFR1 ECD, respectively. […]
To set up reactions, the unlabeled peptide titration (10 μl each) was made from a two-fold dilution series of the highest peptide concentration assayed. […] Samples were incubated for 30 min at RT protected from light before measuring fluorescence.
Samples were then loaded by capillary action onto premium capillaries (Nanotemper Technologies, cat. #MO-K025). Fluorescence was measured on a Monolith NT.115 Instrument (NanoTemper Technologies, Germany) using the capillary scan function at 25°C.
The half-maximum binding constant (K1/2) and Hill coefficient were determined by fitting the data points on Prism 6.0 to the model equation: Y = Bmax*X^h/(K1/2^h + X^h), where Y is the % quenching, X is the concentration of peptide, Bmax is the maximum % quenching, and h is the Hill slope.

DR5L ECD [2] = target: T1, DR5L ECD; assay: Size exclusion chromatography of DR5 ECD and peptide complex; format: biochemical; details: 25 μM DR5L ECD; 100 μM fluorescein-conjugated peptide; overnight 4°C
Experimental: The specified concentration of protein and peptide were incubated overnight at 4°C. The following day, 200 ul of each sample was loaded onto a SuperDex200 10/300 GL column equilibrated with 30 mM HEPES pH 7.2, 150 mM NaCl at a flow rate of 0.5 ml/min. Fractions were collected in 1 ml aliquots.
For subsequent analysis of each fraction by SDS-PAGE, 1 ml fractions were concentrated to 50 μl using a 3 kDa MW cutoff and loaded onto a gel. The fluorescein-labeled peptide was visualized using the fluorescence detection mode on a Typhoon 9400 Variable Mode Imager (GE Healthcare). Protein was visualized by staining with Coomassie.

T1 sequence (O14763 72-213): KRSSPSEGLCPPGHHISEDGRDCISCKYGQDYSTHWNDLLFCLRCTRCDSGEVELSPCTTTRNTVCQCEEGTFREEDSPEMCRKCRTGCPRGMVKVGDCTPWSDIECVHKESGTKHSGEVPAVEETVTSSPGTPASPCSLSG

Kd (DR5L ECD [1]; AlexaFluor647-DR5L ECD 200 nM, 20 mM HEPES pH 7.2, 100 mM KOAc, 0.1% Tween-20, 30 min RT, read at 25°C, N = 3, ± SD, read-out: K1/2 (half-maximum binding constant, apparent binding affinity)) [µM] | fluorescence quenching of AlexaFluor647-DR5L ECD (DR5L ECD [1]; increasing peptide, 200 nM ECD, N = 3) | Sequence | co-elution / oligomerization of DR5 ECD by size exclusion (DR5L ECD [2])
109 ± 11 | – | FTWRYQPEGGRDAISIFHYA [MPZ-ecto] | –
– | quenching was not observed | FTWREQPEGGRDAISIFHEA [MPZ-ecto^Tyr→Glu] | did not co-migrate with or induce the oligomerization of DR5 ECD
